Results from patent US8674064B2, “Immunogenic compositions against human progastrin peptides” (Onkologix Ltd, priority 2010, dated 2014).
Ends that are not written are not given here.

Key:
huG17 [1] = assay: ELISA antibody responses in mice after immunization with peptide-carrier conjugates; type: in vivo; details: three immunizations, FIG. 1
Method: FIG. 1 depicts antibody responses in mice as measured by ELISA and are in response to three immunizations with immunogens comprising each of the conjugates hG18-TT, hG18-DT, hG21-TT and hG21-DT (A, B, C and D, respectively).
(§1) The conjugate may be characterized as to immunomimic peptide content by a number of methods known to those skilled in the art including weight gain, amino acid analysis, etc. Conjugates of peptides G18 and G21 to TT produced by these methods were determined by amino acid analysis to have 10-30 moles of peptide per 104-106 MW of TT and all were considered suitable as immunogens for immunization of test animals. Similarly DT conjugates of G18 and G21, were prepared in the same manner to determine ELISA titers using huG17 as the substrate for assay of antibody binding.
The inventors constructed conjugates comprising each of the G18 and G21 peptides listed in Example 1 linked to TT and DT, as described in Examples 1 and 2. They then immunized six mice with the peptide G18 immunogen (FIGS. 1A, B) and six mice with the peptide G21 immunogen (FIGS. 1C, D).

huG17 [2] = assay: ELISA antibody responses in rabbits after immunization with peptide-carrier conjugates; type: in vivo; details: one administration, FIG. 2
Method: FIG. 2 depicts antibody responses in rabbits, as measured by ELISA, with one administration of a conjugate constructed with peptide 1 (hG18-TT) and peptide 2 (hG21-TT) of Examples 1 and Example 2 below, per A and B, respectively.
as §1
The inventors constructed conjugates comprising each of the G18 and G21 peptides, supra, linked to TT and DT as described in Examples 1 and 2. They then immunized four rabbits with the G18 immunogen (FIG. 2A) and four rabbits with the G21 immunogen (FIG. 2B).

[3] = test system: human gastric cancer cells (BCG-823); details: in vivo

pGlu-Gly-Pro-Trp-isoVal-Glu-Glu-Glu-Glu-Glu-Ala-Ser-Ser-Pro-Pro-Pro-pro-Cys (EGPWVEEEEEASSPPPPC; not fully specified (residues 1, 5, 17); printed as pGlu-Gly-Pro-Trp-isoVal-Glu-Glu-Glu-Glu-Glu-Ala-Ser-Ser-Pro-Pro-Pro-pro-Cys) [Peptide 2]
effective: potency, eliciting of antibody and duration of the antibody responses induced (ELISA) (huG17 [1]) | potency, eliciting of antibody and duration of the antibody responses induced (ELISA) (huG17 [2]) | antibody responses effective in the presence of conventional gastric cancer chemotherapies [3] | inhibiting the growth of human gastric cancer cells [3]

Cys-pro-Pro-Pro-Pro-Ser-Ser-Gly-Trp-Met-Asp-nPhe-Gly-Arg-Arg-Ser-Ala-Glu-Asp-Glu-Asn (CPPPPSSGWMDFGRRSAEDEN; not fully specified (residues 2, 12); printed as Cys-pro-Pro-Pro-Pro-Ser-Ser-Gly-Trp-Met-Asp-nPhe-Gly-Arg-Arg-Ser-Ala-Glu-Asp-Glu-Asn) [Peptide 1]
effective: potency, eliciting of antibody and duration of the antibody responses induced (ELISA) (huG17 [1]) | potency, eliciting of antibody and duration of the antibody responses induced (ELISA) (huG17 [2]) | antibody responses effective in the presence of conventional gastric cancer chemotherapies [3] | inhibiting the growth of human gastric cancer cells [3]
